From patent EP2841543B1, “IMPROVEMENTS RELATING TO FABRIC FRESHNESS” (Unilever PLC, priority 2012, dated 2013)

Experiment: Production and decomposition of squalene hydroperoxides with Rose Bengal and metal ion catalyst, monitored by HPLC
Procedure: Aldrich), 10 ml of acetone and 200 µl of Rose Bengal solution (2 mg/ml). Rose Bengal (4,5,6,7-tetrachloro-2',4',5',7'-tetraiodofluorescein) is a singlet-oxygen photobleach. Air was bubbled through the solution over the whole of the 3 hour monitoring period without the metal ion catalyst, under irradiation by a xenon lamp to simulate day-light. […] The reaction monitored by HPLC using via UV. detection at 230 nm and 260 nm and actonitrile was the mobile phase. The first HPLC measurement taken was at t=0 (before addition of Rose Bengal). Typically the squalene peak was eluted at 15 minutes, and the hydroperoxides eluted at times between 2-10 minutes. For the purpose of the experiment the hydroperoxide peaks at 3 and 5.7 minutes after starting the column were monitored for any change in relative peak height.

[1] = time 1.5 h, RB None, IronMeN4py Yes (5 mg catalyst added after 90 minutes)
[2] = time 1.0 h, RB Yes, IronMeN4py None, squalene in acetone, air, xenon lamp, 10 °C
[3] = time 3.0 h, RB Yes, IronMeN4py None, squalene in acetone, air, xenon lamp, 10 °C

SMILES	Relative Peak Height at t=3 minutes [1]	Relative Peak Height at t=5.7 minutes [1]	Relative Peak Height at t=3 minutes [2]	Relative Peak Height at t=5.7 minutes [2]	Relative Peak Height at t=3 minutes [3]	Relative Peak Height at t=5.7 minutes [3]
CC(c1ccccn1)(c1ccccn1)N(Cc1ccccn1)Cc1ccccn1.[Cl-].[Cl-].[Fe+2] [IronMeN4py, iron(II) N,N-bis(pyridine-2-yl-methyl)-1,1-bis(pyridine-2-yl)-1-aminoethane dichloride]	0	300				
O=C1OC2(c3cc(I)c(O)c(I)c3Oc3c2cc(I)c(O)c3I)c2c(Cl)c(Cl)c(Cl)c(Cl)c21 [RB, 4,5,6,7-tetrachloro-2',4',5',7'-tetraiodofluorescein]			600	2100	2000	2100
